Assay results: US20140221340A1 (KYOWA HAKKO KIRIN CO., LTD., priority 2011, published 2014)

The molecules below were run against T1, human CCR10 (Homo sapiens, UniProt P46092) (assay: Calcium assay of human CCR10 (inhibition of CTACK-induced increase in intracellular calcium ion concentration in hCCR10G16 cells)). Conditions: test compound 100 nmol/L; human recombinant CTACK; hCCR10G16 cells (KJMGER8/Namalwa-derived, Gα16 co-expressed); FLIPR or FDSS; read-out: Inhibitory rate (%) for an increase in calcium ion concentration.
T1 construct: expressed in transfected cells; host or cells: KJMGER8 cell (cell line derived from Namalwa cell); expression induced with 10 nmol/L β-estradiol
T1 sequence (P46092 1-362): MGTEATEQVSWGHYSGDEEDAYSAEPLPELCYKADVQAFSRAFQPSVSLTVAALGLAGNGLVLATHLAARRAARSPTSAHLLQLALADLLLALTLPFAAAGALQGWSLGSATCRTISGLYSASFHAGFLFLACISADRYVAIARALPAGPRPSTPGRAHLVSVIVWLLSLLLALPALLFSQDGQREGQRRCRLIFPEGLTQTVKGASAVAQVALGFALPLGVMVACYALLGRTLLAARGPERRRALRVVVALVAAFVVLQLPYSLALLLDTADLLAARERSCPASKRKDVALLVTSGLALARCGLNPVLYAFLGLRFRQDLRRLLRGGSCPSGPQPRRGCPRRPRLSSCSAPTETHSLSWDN
Format: cell-based
Outline: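 KJMGER8-derived hCCR10G16 cells (human CCR10 plus Gα16, expression induced 24 h with 10 nmol/L β-estradiol) were dye-loaded and preincubated with compound for 30 min at 37 °C, then stimulated with CTACK (300 nmol/L stock). Calcium flux over ~5 min (max−min fluorescence) gave percent inhibition versus DMSO control.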

Inhibition at 0.1 µM, > 100%:
Cc1cc(Nc2c(C(=O)N3CCC(c4ccc(F)cc4)CC3)cnc3c(S(=O)(=O)NC(=O)C4CC4)cnn23)c(Cl)cc1F [a-41, N-{7-(2-Chloro-4-fluoro-5-methylphenylamino)-6-[4-(4-fluorophenyl)piperidine-1-carbonyl]pyrazolo[1,5-a]pyrimidin-3-ylsulfonyl}cyclopropanecarboxamide]
CCNC(=O)NS(=O)(=O)c1cnn2c(Nc3cc(Cl)ccc3F)c(C(=O)N3CCC(c4ccc(F)cc4)CC3)cnc12 [a-34, 7-(5-Chloro-2-fluorophenylamino)-N-(ethylcarbamoyl)-6-[4-(4-fluorophenyl)piperidine-1-carbonyl]pyrazolo[1,5-a]pyrimidine-3-sulfonamide]
CONS(=O)(=O)c1cnn2c(Nc3cc(Cl)ccc3Cl)c(C(=O)N3CCC(c4ccc(F)cc4)CC3)cnc12 [a-27, 7-(2,5-Dichlorophenylamino)-6-[4-(4-fluorophenyl)piperidine-1-carbonyl]-N-methoxypyrazolo[1,5-a]pyrimidine-3-sulfonamide]
